Measurements reported in US4362718A, “Agent for curing peripheral circulation insufficiency” (Yamanouchi Pharmaceutical Co., Ltd., priority 1979, dated 1982).
Where two headings read alike, the source gives them in different places.

Key:
[1] = tested on: red blood corpuscles; assay: Fine opening passability of red blood corpuscles (nitrocellulose membrane filter, 3.0 μm); type: cell-based, human; conditions: 37° C., 30 minutes, 3.0 μm filter, 80 mmHg/cm^2
Protocol: (§1) (1) One part by volume of human blood was mixed with 1 part by volume of a preservative solution (acid-citrate-dextrose solution) and preserved at 4° C. Just before using, it was washed 4 times with about 8 times by volume of a saline solution (2,000 rotations/minute, for 3 minutes) and a 2% saline floating solution of red blood corpuscles was prepared.
(§2) (2) A solution prepared by dissolving α1 -acid glycoprotein or a comparative substance shown in FIG. 1 in a saline solution was mixed with the same amount of the saline floating solution of red blood corpuscles, and the mixture was moderately shaked for 30 minutes at 37° C. 1 ml of the mixture was taken out and filtered by means of a nitrocellulose membrane filter (produced by Saltrius Co., diameter: 13 mm, diameter of fine openings: 3.0 μm) at 37° C. with pressing under 80 mmHg/cm^2. 0.5 ml of the filtrate was taken out and subjected to light centrifugal separation (1,500 rotations/minute, for 2 minutes). To the precipitate was added 5 ml of deionized water to cause hemolysis at a low tonicity, and a ratio of red blood corpuscles passing through the filter was calculated from the absorbance (420 nm) thereof. Further, percent hemolysis caused during the operation was calculated from the absorbance of the supernatant fluid of the filtrate.

[2] = tested on: red blood corpuscles through fine blood vessels; assay: Passability of red blood corpuscles through vital fine blood vessels (exposed rabbit mesentery, reduced blood pressure); type: in vivo
Description: A rabbit was subjected to laparotomy under urethane anesthesia to expose the mesentery and the passability of the red blood corpuscles through fine blood vessels was observed by means of a stereomicroscope.

[3] = tested on: red blood corpuscles
Protocol: as §1, §2

[4] = tested on: Rat; assay: Acute toxicity, rat; type: in vivo
[5] = tested on: Mouse; assay: Acute toxicity, mouse; type: in vivo
[6] = tested on: HeLaS3; assay: Toxicity to cultivated cells, HeLaS3; type: cell-based
[7] = tested on: Human fetal lung fiber cell; assay: Toxicity to cultivated cells, human fetal lung fiber cell; type: cell-based
[8] = tested on: EB virus transform lymphoblast P3HR-1; assay: Toxicity to cultivated cells, P3HR-1; type: cell-based
[9] = 100 μg-1 mg/kg, arterial blood pressure 40-60 mmHg/cm^2

Row | Substance | passage of red blood corpuscles through the filter ([1]; 0.1% solution, compared with α1 -acid glycoprotein) | stagnation of the blood flow and stopping of the blood corpuscles ([2]; in case of using dextran sulfate, reduced blood pressure) | percent hemolysis in case of passing through fine openings ([3]; human, red blood cells) | passage of red blood corpuscles through the filter ([1]; 0.05% solution, saline control did not pass at all) | impilation of corpuscles and separation of the corpuscle component from the serum [2, 9] | movement of red blood corpuscles [2, 9] | passability of red blood corpuscles through fine blood vessels under reduced blood pressure ([2]; continuously into local dominating artery or into a vein, 100 μg-1 mg/kg, blood pressure reduced by blood-letting or pentobarbital) | LD50 ([4]; intraperitoneally) | LD50 ([4]; intravenously) | LD50 ([4]; subcutaneously) | LD50 ([5]; intraperitoneally) | LD50 ([5]; intravenously) | LD50 ([5]; subcutaneously) | Toxicity (50% Inhibition of propagation) [6] | Toxicity (50% Inhibition of propagation) [7] | Toxicity (50% Inhibition of propagation) [8] | percent hemolysis in case of passing through fine openings ([3]; 0.05% solution, saline alone as high as 20%)
1 | dextran sulfate [reference compound] | passage of the red blood corpuscles was observed too, but the effect was small as compared with the case of α1 -acid glycoprotein | such stagnation of the blood flow and stopping of the blood corpuscles were not observed | 25 to 30% |  |  |  |  |  |  |  |  |  |  |  |  |  | 
2 | α1 -acid glycoprotein: active ingredient of the present invention; substance known already, produced by the process described in Unexamined patent publication Sho 53-37187 |  |  |  | the red blood corpuscles passed through the filter with hardly causing hemolysis | impilation of corpuscles and separation of the corpuscle component from the serum were not observed | the red blood corpuscles moved in the normal direction though the movement was slow | the passability of red blood corpuscles was good | > 1,000 mg/kg | > 1,000 mg/kg | > 1,000 mg/kg | > 1,000 mg/kg | > 1,000 mg/kg | > 1,000 mg/kg | > 100 µg/mL | > 100 µg/mL | > 100 µg/mL | 5%
